Where two headings read alike, the source gives them in different places.
Tests used:
BTK = BTK (Homo sapiens (Human), UniProt Q06187); test: KdELECT assay for binding affinity to BTK
Procedure: Compounds were tested using a KdELECT assay. Kinase-tagged T7 phage strains were prepared in an E. coli host derived from the BL21 strain. E. coli were grown to log-phase and infected with T7 phage and incubated with shaking at 32° C. until lysis. The lysates were centrifuged and filtered to remove cell debris. The remaining kinases were produced in HEK-293 cells and subsequently tagged with DNA for qPCR detection. Streptavidin-coated magnetic beads were treated with biotinylated small molecule ligands for 30 minutes at room temperature to generate affinity resins for kinase assays. The liganded beads were blocked with excess biotin and washed with blocking buffer (SeaBlock (Pierce), 1% BSA, 0.05% Tween 20, 1 mM DTT) to remove unbound ligand and to reduce non-specific binding. Binding reactions were assembled by combining kinases, liganded affinity beads, and test compounds in 1× binding buffer (20% SeaBlock, 0.17×PBS, 0.05% Tween 20, 6 mM DTT). Test compounds were prepared as 111X stocks in 100% DMSO. Kd values were determined using an 11-point 3-fold compound dilution series with three DMSO control points. All compounds for Kd measurements are distributed by acoustic transfer (non-contact dispensing) in 100% DMSO. The compounds were then diluted directly into the assays such that the final concentration of DMSO was 0.9%. All reactions performed in polypropylene 384-well plate. Each was a final volume of 0.02 mL. The assay plates were incubated at room temperature with shaking for 1 hour and the affinity beads were washed with wash buffer (1×PBS, 0.05% Tween 20). The beads were then re-suspended in elution buffer (1×PBS, 0.05% Tween 20, 0.5 μM nonbiotinylated affinity ligand) and incubated at room temperature with shaking for 30 minutes. The kinase concentration in the eluates was measured by qPCR.

HeLa cells = test: Cellular growth inhibition assay (CellTiter-Glo), HeLa cells; type: cell-based; settings: HeLa cells, three days of compound treatment, CellTiter-Glo 2.0, read-out: CTG HELA GI50
Procedure: (§1) HEK293 and HeLa cells were cultured in DMEM medium supplemented with 10% fetal bovine serum and 1% Penn/Strep. Cells were seeded in white 384-well plates at 500 cells/well in […] complete medium. Following seeding, plates were spun at 300×g for three minutes and cultured at 37° C. with 5% CO2 in a humidified tissue culture incubator.
(§2) After 24 hours, compounds were titrated in 100% DMSO and diluted in complete cell culture medium. […] of compound/media mixture was added to cells to bring total volume in well to […]. DMSO alone was used as a negative control. Plates were then spun at 300×g for three minutes and stored at 37° C. with 5% CO2 for three days.
(§3) On Day 0 and Day 3 of compound treatment, cell viability was quantified with CellTiter-Glo 2.0 reagent (Promega). After equilibrating microplates at room temperature for 30 minutes, 25 μL CellTiter-Glo 2.0 reagent was dispensed into each well to bring total volume to […]. Plates were mixed on shaker for 2 minutes at 500 rpm, followed by a 10-minute incubation at room temperature. Following a quick spin, luminescence readings were measured with an En Vision Plate Reader. Data was normalized to DMSO treated Day 0 and Day 3 readings. A four-parameter non-linear regression curve fit was applied to dose-response data in GraphPad Prism data analysis software to determine the half maximal growth inhibitory concentration (GI50) for each compound.

HEK293 cells = test: Cellular growth inhibition assay (CellTiter-Glo), HEK293 cells; type: cell-based; settings: HEK293 cells, three days of compound treatment, CellTiter-Glo 2.0, read-out: CTG HEK293 GI50
Procedure: as §1, §2, §3

Sequence of BTK (Q06187 whole entry): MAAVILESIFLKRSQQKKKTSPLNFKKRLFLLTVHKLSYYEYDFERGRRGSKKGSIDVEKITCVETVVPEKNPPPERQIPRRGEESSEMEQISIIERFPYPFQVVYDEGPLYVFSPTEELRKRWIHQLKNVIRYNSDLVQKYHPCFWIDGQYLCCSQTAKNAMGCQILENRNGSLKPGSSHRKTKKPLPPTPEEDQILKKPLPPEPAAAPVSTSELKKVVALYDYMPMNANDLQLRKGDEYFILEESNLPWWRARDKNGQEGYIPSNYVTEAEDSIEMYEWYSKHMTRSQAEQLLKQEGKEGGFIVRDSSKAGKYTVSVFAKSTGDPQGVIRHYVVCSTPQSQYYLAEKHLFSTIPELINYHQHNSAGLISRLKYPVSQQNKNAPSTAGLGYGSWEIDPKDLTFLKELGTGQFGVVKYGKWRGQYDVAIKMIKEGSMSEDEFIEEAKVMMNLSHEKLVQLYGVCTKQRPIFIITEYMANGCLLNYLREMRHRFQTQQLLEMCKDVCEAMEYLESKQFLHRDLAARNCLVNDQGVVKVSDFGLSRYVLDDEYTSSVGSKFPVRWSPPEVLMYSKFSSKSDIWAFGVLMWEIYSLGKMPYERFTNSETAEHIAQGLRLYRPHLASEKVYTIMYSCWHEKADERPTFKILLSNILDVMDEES

GI50 (HeLa cells; Homo sapiens, 72 h) [nM]	SMILES	GI50 (HEK293 cells; Homo sapiens, 72 h) [nM]	also measured
> 5000	CN(CCNS(=O)(=O)c1cc(F)cc(N(C(=O)[C@@H]2CCC(=O)N2c2cc(C#N)ccn2)[C@@H](C(=O)NC2CC(F)(F)C2)c2ccccc2Cl)c1)C(=O)N1N=C(c2cc(F)ccc2F)SC1(CCCN)c1ccccc1 (stereo partly drawn) [Compound I-113, 2-(3-aminopropyl)-N-[2-[[3-[[(1R)-1-(2-chlorophenyl)-2-[(3,3-difluorocyclobutyl)amino]-2-oxo-ethyl]-[(2S)-1-(4-cyano-2-pyridyl)-5-oxo-pyrrolidine-2-carbonyl]amino]-5-fluoro-phenyl]sulfonylamino]ethyl]-5-(2,5-difluorophenyl)-N-methyl-2-phenyl-1,3,4-thiadiazole-3-carboxamide]	> 5000	–
500 to 1500	CN(CCNS(=O)(=O)c1cc(F)cc(N(C(=O)[C@@H]2CCC(=O)N2c2cc(C#N)ccn2)[C@H](C(=O)NC2CC(F)(F)C2)c2ccccc2Cl)c1)C(=O)N1N=C(c2cc(F)ccc2F)SC1(CCCN)c1ccccc1 (stereo partly drawn) [Compound I-112, 2-(3-aminopropyl)-N-[2-[[3-[[(1S)-1-(2-chlorophenyl)-2-[(3,3-difluorocyclobutyl)amino]-2-oxo-ethyl]-[(2S)-1-(4-cyano-2-pyridyl)-5-oxo-pyrrolidine-2-carbonyl]amino]-5-fluoro-phenyl]sulfonylamino]ethyl]-5-(2,5-difluorophenyl)-N-methyl-2-phenyl-1,3,4-thiadiazole-3-carboxamide]	1500 to 5000	–
500 to 1500	C=CC(=O)N1CCN([C@@H](CC2CC2)c2ccc([C@H](C)Nc3ncc4c(n3)N(CCOCCOCCOCCOCCOCCOCCON(C)C(=O)N3N=C(c5cc(F)ccc5F)SC3(CCCN)c3ccccc3)C(=O)OC4)cc2)CC1 (some centres unmarked) [Compound I-60]	1500 to 5000	–
< 500	C=CC(=O)N1CCN([C@@H](CC2CC2)c2ccc([C@H](C)Nc3ncc4c(n3)N(CCOCCOCCOCCOCCOc3ccc(CNc5cc(N6CCCC[C@H]6CCO)nc6c(CC)cnn56)cn3)C(=O)OC4)cc2)CC1 [Compound I-57]	< 500	–
< 500	CCS(=O)(=O)Nc1ccc(Oc2cccc(OCCOCCOCCOCCOCC(=O)N3CC(=O)N(c4cc(C#N)ccn4)[C@H](C(=O)N(c4cc(F)cc(F)c4)C(C(=O)NC4CC(F)(F)C4)c4ccccc4Cl)C3)c2)c(-c2cn(C)c(=O)c3[nH]ccc23)c1 (stereo partly drawn) [Compound I-108, (2S)—N-[1-(2-chlorophenyl)-2-[(3,3-difluorocyclobutyl)amino]-2-oxo-ethyl]-1-(4-cyano-2-pyridyl)-N-(3,5-difluorophenyl)-4-[2-[2-[2-[2-[2-[3-[4-(ethylsulfonylamino)-2-(6-methyl-7-oxo-1 H-pyrrolo[2,3-c]pyridin-4-yl)phenoxy]phenoxy]ethoxy]ethoxy]ethoxy]ethoxy]acetyl]-6-oxo-piperazine-2-carboxamide]	> 5000	–

Second part, the compound before the results:

SMILES	GI50 (HeLa cells; Homo sapiens, 72 h) [nM]	GI50 (HEK293 cells; Homo sapiens, 72 h) [nM]	also measured
CC[C@@H]1C(=O)N(C)c2cnc(Nc3ccc(C(=O)NCCOCCOCCOC/C=C/C(=O)N4CCC[C@@H](n5nc(-c6ccc(Oc7ccccc7)cc6)c6c(N)ncnc65)C4)cc3OC)nc2N1C1CCCC1 [Compound I-37, N-[2-[2-[2-[(E)-4-[(3R)-3-[4-amino-3-(4-phenoxyphenyl)pyrazolo[3,4-d]pyrimidin-1-yl]-1-piperidyl]-4-oxo-but-2-enoxy]ethoxy]ethoxy]ethyl]-4-[[(7R)-8-cyclopentyl-7-ethyl-5-methyl-6-oxo-7H-pteridin-2-yl]amino]-3-methoxy-benzamide]	–	–	Kd (BTK): 50 to 500 nM
CC[C@@H]1C(=O)N(C)c2cnc(Nc3ccc(C(=O)NCCCCCCCCOC/C=C/C(=O)N4CCC[C@@H](n5nc(-c6ccc(Oc7ccccc7)cc6)c6c(N)ncnc65)C4)cc3OC)nc2N1C1CCCC1 [Compound I-36, N-[8-[(E)-4-[(3R)-3-[4-amino-3-(4-phenoxyphenyl)pyrazolo[3,4-d]pyrimidin-1-yl]-1-piperidyl]-4-oxo-but-2-enoxy]octyl]-4-[[(7R)-8-cyclopentyl-7-ethyl-5-methyl-6-oxo-7H-pteridin-2-yl]amino]-3-methoxy-benzamide]	–	–	Kd (BTK): 50 to 500 nM
CC(C)(C)c1[nH]cnc1/C=c1\[nH]c(=O)/c(=C/c2ccccc2)n(CCOCCOCCOCCOCC(=O)N2CC(=O)N(c3cc(C#N)ccn3)[C@H](C(=O)N(c3cc(F)cc(F)c3)[C@H](C(=O)NC3CC(F)(F)C3)c3ccccc3Cl)C2)c1=O [Compound I-110, (2S)-4-[2-[2-[2-[2-[2-[(2Z,5Z)-2-benzylidene-5-[(5-tert-butyl-1 H-imidazol-4-yl)methylene]-3,6-dioxo-piperazin-1-yl]ethoxy]ethoxy]ethoxy]ethoxy]acetyl]-N-[(1S)-1-(2-chlorophenyl)-2-[(3,3-difluorocyclobutyl)amino]-2-oxo-ethyl]-1-(4-cyano-2-pyridyl)-N-(3,5-difluorophenyl)-6-oxo-piperazine-2-carboxamide]	> 5000	> 5000	–
CCc1cnn2c(NCc3ccc(OCCCc4cc(-c5cnc([C@H](C)Nc6nccc(N7C(=O)OC[C@@H]7[C@H](C)F)n6)cc5C)cc(C(F)(F)F)n4)nc3)cc(N3CCCC[C@H]3CCO)nc12 [Compound I-101]	–	–	GI50 (HeLa cells): < 500 nM; GI50 (HEK293 cells): < 500 nM
CCNC(=O)C[C@@H]1N=C(c2ccc(OCCOCCOCCOCCOCCNS(=O)(=O)c3cc(F)cc(N(C(=O)[C@@H]4CCC(=O)N4c4cc(C#N)ccn4)C(C(=O)NC4CC(F)(F)C4)c4ccccc4Cl)c3)cc2)c2c(sc(C)c2C)-n2c(C)nnc21 (stereo partly drawn) [Compound I-104, (2S)—N-[1-(2-chlorophenyl)-2-[(3,3-difluorocyclobutyl)amino]-2-oxo-ethyl]-1-(4-cyano-2-pyridyl)-N-[3-[2-[2-[2-[2-[2-[4-[(9S)-9-[2-(ethylamino)-2-oxo-ethyl]-4,5, 13-trimethyl-3-thia-1,8,11,12-tetrazatricyclo[8.3.0.0^2,6]trideca-2 (6),4,7,10,12-pentaen-7-yl]phenoxy]ethoxy]ethoxy]ethoxy]ethoxy]ethylsulfamoyl]-5-fluoro-phenyl]-5-oxo-pyrrolidine-2-carboxamide]	> 5000	> 5000	–
CCc1cnn2c(NCc3ccc(OCCOCCOCCCc4cc(-c5cnc([C@H](C)Nc6nccc(N7C(=O)OC[C@@H]7[C@H](C)F)n6)cc5C)cc(C(F)(F)F)n4)nc3)cc(N3CCCC[C@H]3CCO)nc12 [Compound I-99]	–	–	GI50 (HeLa cells): < 500 nM; GI50 (HEK293 cells): < 500 nM
NC(=O)c1c(F)cccc1Nc1nc(Nc2ccc(S(=O)(=O)NCCCCCCCC/C=C/C(=O)N3CCC[C@@H](n4nc(-c5ccc(Oc6ccccc6)cc5)c5c(N)ncnc54)C3)cc2)ncc1Br [Compound I-17]	–	–	Kd (BTK): 500 to 2500 nM
CC[C@@H]1C(=O)N(C)c2cnc(Nc3ccc(C(=O)NCCOCCOCCOCCOCCOCCOCCOC/C=C/C(=O)N4CCC[C@@H](n5nc(-c6ccc(Oc7ccccc7)cc6)c6c(N)ncnc65)C4)cc3OC)nc2N1C1CCCC1 [Compound I-39, N-[2-[2-[2-[2-[2-[2-[2-[(E)-4-[(3R)-3-[4-amino-3-(4-phenoxyphenyl)pyrazolo[3,4-d]pyrimidin-1-yl]-1-piperidyl]-4-oxo-but-2-enoxy]ethoxy]ethoxy]ethoxy]ethoxy]ethoxy]ethoxy]ethyl]-4-[[(7R)-8-cyclopentyl-7-ethyl-5-methyl-6-oxo-7H-pteridin-2-yl]amino]-3-methoxy-benzamide]	–	–	Kd (BTK): < 50 nM
C=CC(=O)N1CCN([C@@H](CC2CC2)c2ccc([C@H](C)Nc3ncc4c(n3)N(CCOCCOCCOCCOCCn3cc(CNc5cc(N6CCCC[C@H]6CCO)nc6c(CC)cnn56)ccc3=O)C(=O)OC4)cc2)CC1 [Compound I-58]	< 500	500 to 1500	–
CCc1cnn2c(NCc3ccc(OCCOCCOCCOCCOCCOCCOCCOC/C=C/C(=O)N4CCC[C@@H](n5nc(-c6ccc(Oc7ccccc7)cc6)c6c(N)ncnc65)C4)nc3)cc(N3CCCC[C@H]3CCO)nc12 [Compound I-45]	500 to 1500	500 to 1500	–
